For test [1], the target named is T1, hEP4 receptors (human EP4/HEK293 transfectant) (Homo sapiens, UniProt P35408).
T1 construct: expressed in transfected cells; host or cells: HEK-293, stably transfected; membrane fraction
As to the kind of experiment: [3H]-PGE2 membrane binding assay. The note with it: [3H]-PGE2 1 nM, human EP4/HEK293 membranes, compounds 1 nM to 1 μM; Ki by Cheng-Prusoff, pKi = -log10 Ki (M). The source says:
(§1) Stable Expression of Human EP4 Receptors in the Human Embryonic Kidney (HEK293) Cell Line
(§2) The cDNA clone of human EP4 receptor (NM_000958.2) was obtained from Invitrogen™: Ultimate™ ORF Clone Collection-Clone ID IOH46525. The coding sequence was subcloned in expression vector pcDNATM6.2/V5-DEST by Gateway technology (Invitrogen™).
(§3) Human embryonic kidney cells (HEK-293) were stably transfected with expression vector for human EP4 receptor in according to the method described in FuGENE®6 Transfection Reagent's manual (Roche Applied Science®).
(§4) Preparation of Membrane Fraction:
(§5) The EP4 transfected cells were grown in Dulbecco's modified Eagle's medium containing 10% fetal bovine serum and 10 μg/ml Blasticidin S HCl (selection medium) at 37° C. in a humidified atmosphere of 5% CO2 in air.
(§6) For the membrane preparation, cells in flask were harvested by hypotonical/mechanical lysis with chilled (4° C.) TE buffer (5 mM TRIS, 5 mM etylenediamine tetra-acetic acid (EDTA), pH 7.4).
(§7) Cells were detached and lysed with 10 ml of hypotonic lysis buffer and by scraping. The cell lysate was vortexed for 30 sec and centrifuged at 40000×g at 4° C. for 22 min.
a) Membrane Binding Assay[3H]-Prostaglandin E2
The membrane pellet was resuspended in the same buffer (5 mM TRIS, 5 mM ethylenediamine tetra-acetic acid (EDTA), pH 7.4), and protein concentration was determined by Bradford method (Bio-Bad® assay).
This membrane preparation was stored at −80° C. freezer until use for binding assay.
([^3H]-PGE2) membranes binding assays toward hEP4 receptors (human EP4/HEK293 transfectant, see above) and hEP2 receptors (human EP2/HEK293 transfectant, purchased from PerkinElmer Inc) were performed in 10 mM MES-KOH buffer pH6, containing 10 mM MgCl2 and 1 mM CaCl2 for EP4 binding assay or 50 mM Tris-Cl, BSA 0.5% for EP2 binding assay (according to supplier indication).
Ten microgram of protein from membrane fractions were incubated in a total volume of 0.1 ml (EP4) or 0.2 ml (EP2) with 1 nM (EP4) or 3 nM (EP2) [^3H]-PGE2 (PerkinElmer Inc, 171 Ci/mmol). In both assays to determine the total binding or non specific binding, 1% DMSO or 1 μM prostaglandin E2 (EP4) or 100 μM (EP2) were added to reaction mixtures, respectively. Incubation was conducted in a polypropylene 96 multiwell for 90 min (EP4) or 60 min (EP2) at room temperature prior to separation of the bound and free radioligand by vacuum manifold rapid filtration on glass fiber filters (Unifilter GFB96, PerkinElmer Inc) pre-soaked in 0.3% polyethyleneimine. Filters were washed with ice cold buffer pH 7.4 (50 mM HEPES, NaCl 500 mM, BSA 0.1% for EP4 binding assay or 50 mM Tris-Cl for EP2 binding assays) and the residual [^3H]-PGE2 binding determined by solid scintillation counter (TopCount, PerkinElmer Inc).
The affinity (Ki) of each compound was calculated according to the Cheng-Prousoff equation: Ki=IC50/(1+([C]/Kd)). Results were expressed as pKi (−log 10 Ki (M)

The next test addresses T2, human EP4 receptor (Homo sapiens, UniProt P35408).
T2 construct: expressed in transfected cells; host or cells: HEK-293, stably transfected; membrane fraction
As to the kind of experiment: cAMP assay on human EP4 membrane of transfected cells (AlphaScreen). The note with it: human EP4 HEK293 cell membranes. The format is biochemical.
Source text: as §1, §2, §3, §4, §5, §6, §7
b) cAMP Assay on Human EP4 Membrane of Transfected Cells.
The assay is based on the competition between endogenous cAMP and exogenously added biotinylated cAMP. The capture of cAMP is achieved by using a specific antibody conjugated to […] beads.
Cell membranes prepared as described above, were resuspended in 1 ml stimulation buffer (HBSS 1×+BSA 0.1%+IBMX 0.5 mM+HEPES 5 mM+MgCl2 10 mM+GTP 1 nM+GDP 10 μM+ATP 100 μM-pH 7.4). Cell membranes were dispensed into white 384-well microplates at final concentration of 1 μg/well and used for the determination of cAMP with the alphascreen cAMP functional assay (EnVision-PerkinElmer). Cell membrane/anti-cAMP Acceptor beads mix (5 μl) and a mixture of analysed compounds (dissolved in 100% DMSO to a final maximal concentration of 0.01% DMSO)/PGE2 (5 μl) were incubated at room temperature (22-23° C.) for 30 min in the dark. The Biotinylated-cAMP and donor beads (15 μl) were dispensed into each well to start the competition reaction. After 1 h incubation RT (22-23° C.) in the dark the plate was read using EnVision platform to determine the cAMP level (excitation: 680 nm; emission:520,620 nm).
cAMP standard curve (concentration range from 1×10-6 to 1×10-11 M in log intervals) with a negative control (no cAMP)
a positive control:forskolin 10 μM
Antagonism studies were performed stimulating HEK293 cell membrane with PGE2 3 nM. The AlphaScreen signal is plotted as a function of log concentration of cAMP and EC50 is determined. EC50 value is calculated by […].

T1 sequence (P35408 whole entry): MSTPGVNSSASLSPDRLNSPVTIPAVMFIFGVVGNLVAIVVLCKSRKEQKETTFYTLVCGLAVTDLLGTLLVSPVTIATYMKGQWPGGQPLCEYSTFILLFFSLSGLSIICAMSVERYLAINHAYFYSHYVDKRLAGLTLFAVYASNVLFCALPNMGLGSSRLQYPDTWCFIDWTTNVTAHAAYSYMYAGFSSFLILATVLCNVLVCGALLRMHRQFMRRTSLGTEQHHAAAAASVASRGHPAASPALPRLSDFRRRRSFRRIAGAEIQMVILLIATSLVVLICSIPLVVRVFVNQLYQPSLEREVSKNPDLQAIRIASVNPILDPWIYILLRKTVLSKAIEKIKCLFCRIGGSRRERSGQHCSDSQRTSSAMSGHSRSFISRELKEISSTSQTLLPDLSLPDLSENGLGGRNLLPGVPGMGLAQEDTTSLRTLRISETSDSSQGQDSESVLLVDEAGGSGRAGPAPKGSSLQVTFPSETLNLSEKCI
T2 sequence (P35408 whole entry): as above

In general, Ki refers to a dissociation constant, usually derived from enzyme kinetics or from competition with a known ligand. A higher Ki goes with lower affinity. The EC50 is the concentration giving half of the maximal effect. A lower EC50 goes with higher potency in that assay. For `C[C@H](NC(=O)[C@H]1CCCCN1Cc1cccc(C(F)(F)F)c1)c1ccc(C(=O)O)cc1` [Example E5, lithium 4-((S)-1-((R)-1-(3-(trifluoromethyl)benzyl)piperidine-2-carboxamido)ethyl)benzoate], in test [1], the inhibition constant (Ki) was 3.16e-08 M. A half-maximal effect on human EP4 receptor (EC50) was put at 1 nM.

With `O=C(O)c1ccc(C2(NC(=O)[C@H]3CCCCN3Cc3cccc(C(F)(F)F)c3)CC2)cc1` [Example E9, lithium (R)-4-(1-(1-(3-(trifluoromethyl)benzyl)piperidine-2-carboxamido)cyclopropyl)benzoate], in test [1], the Ki was 7.94e-09 M. On human EP4 receptor, a half-maximal effect (EC50) was put at 2.9 nM.

`Cc1cc(CN2CCCC[C@@H]2C(=O)NC2(c3ccc(C(=O)O)cc3)CC2)ccc1F` [Example E12, (R)-4-(1-(1-(4-fluoro-3-methylbenzyl)piperidine-2-carboxamido)cyclopropyl)benzoic acid] gave a Ki in test [1] of 3.16e-08 M. At human EP4 receptor, this compound registered an EC50 of 6 nM.

For `O=C(O)c1ccc(C2(NC(=O)[C@H]3CCCCN3Cc3ccc(F)c(C(F)(F)F)c3)CC2)cc1` [Example E13, lithium (R)-4-(1-(1-(4-fluoro-3-(trifluoromethyl)benzyl)piperidine-2-carboxamido)cyclopropyl)benzoate], the Ki in test [1] was 1e-08 M. Moreover, a half-maximal effect on human EP4 receptor (EC50) was put at 8 nM.

Regarding `C[C@H](NC(=O)[C@H]1CCCN1Cc1cccc(C(F)(F)F)c1)c1ccc(C(=O)O)cc1` [Example E15, lithium 4-((S)-1-((R)-1-(3-(trifluoromethyl)benzyl)pyrrolidine-2-carboxamido)ethyl)benzoate], the Ki in test [1] is 2e-08 M. The compound further gave an EC50 on human EP4 receptor of 13.5 nM.

Compound `C[C@H](NC(=O)[C@H]1C[C@@H](O)CN1Cc1cccc(C(F)(F)F)c1)c1ccc(C(=O)O)cc1` [Example E19, lithium 4-((S)-1-((2R,4R)-4-hydroxy-1-(3-(trifluoromethyl)benzyl)pyrrolidine-2-carboxamido)ethyl)benzoate] showed a Ki in test [1] of 3.98e-08 M. The same compound had an EC50 on human EP4 receptor of 0.1 nM.

The values are drawn from patent US9120824B2, “Cyclic amine derivatives as EP4 receptor agonists” (ROTTAPHARM BIOTECH S.R.L., priority 2011, dated 2015).
